In publication PMC6374431, “NMR Analysis on Molecular Interaction of Lignin with Amino Acid Residues of Carbohydrate-Binding Module from Trichoderma reesei Cel7A” (Scientific Reports, 2019):

Target: T1, TrCBM1 (CBM1 of TrCel7A, cellobiohydrolase I) (Trichoderma reesei, UniProt P62694)
T1 construct: gene cbh1; isolated C-terminal family 1 CBM (36 residues) plus residual residues at N- and C-termini from enterokinase and thrombin cleavage; His tag and GFP removed; E. coli BL21(DE3); 15N-labeled, mass 5255
T1 sequence (P62694 478-513): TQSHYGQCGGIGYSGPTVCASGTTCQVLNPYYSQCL
Assay: NMR titration, chemical shift perturbation (1H-15N SOFAST-HMQC)
Assay type: binding
Conditions: 100 μM 15N-TrCBM1, 100 mM citric acid buffer pH 5.0, 10% D2O, 298 K; cellohexaose 700-5600 μM; flat plane surface and cleft

OC[C@H]1O[C@@H](O[C@H]2[C@H](O)[C@@H](O)[C@H](O[C@H]3[C@H](O)[C@@H](O)[C@H](O[C@H]4[C@H](O)[C@@H](O)[C@H](O[C@H]5[C@H](O)[C@@H](O)[C@H](O[C@H]6[C@H](O)[C@@H](O)C(O)O[C@@H]6CO)O[C@@H]5CO)O[C@@H]4CO)O[C@@H]3CO)O[C@@H]2CO)[C@H](O)[C@@H](O)[C@@H]1O (stereo partly shown) [cellohexaose]
Δδ (CSP): The incremental addition of cellohexaose continuously increased Δδ.
